Results reported in publication PMC10464297, “Reevaluation of bromodomain ligands targeting BAZ2A” (Protein Science : A Publication of the Protein Society, 2023).
Entries after “also recorded” stand apart in the source; their conditions may differ. One block for each molecule: values may come before it.

Legend:
BAZ2A bromodomain [1] = target: T1, BAZ2A bromodomain (Homo sapiens, UniProt Q9UIF9); test: AlphaScreen binding competition, BAZ2A bromodomain; conditions: for % residual binding BAZ2A (100 μM): compound at 100 μM
T1 construct: BAZ2A and BAZ2B bromodomains were produced; made in house
T1 sequence (Q9UIF9 1793-1897 limits assumed): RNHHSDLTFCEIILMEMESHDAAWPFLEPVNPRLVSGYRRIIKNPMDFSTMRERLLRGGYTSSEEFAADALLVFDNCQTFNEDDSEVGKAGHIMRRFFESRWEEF
Text: (§1) BAZ2A and BAZ2B bromodomains were produced and their activity evaluated by AlphaScreen as previously reported (Dalle Vedove et al., [2018]; Spiliotopoulos et al., [2017]). BAZ2A bromodomain was crystallized as detailed in an earlier work (Spiliotopoulos et al., [2017]). Diffraction data were collected at the Elettra Synchrotron Light Source (Trieste, Italy), XRD1 and XRD2 beamlines, and the European Synchrotron Radiation Facility (ESRF, Grenoble, France), ID30A‐1/MASSIF‐1 beamline. Data were processed and structures were solved as described elsewhere (Dalle Vedove et al., [2018]). Chemical synthesis of compounds UP39 and UZH23 has already been reported (Unzue et al., [2016]; Zhu et al., [2018]). A detailed description of cell culture methods and ITC protocol is provided in the Supporting Information.
(§2) Figure S3. AlphaScreen competition binding assay for compounds UP39 and UZH23. The specific binding to the acetylated peptide relative to the control DMSO (y-axis) is plotted against the corresponding compound concentration in µM in log10 scale (x-axis).
(§3) (1 picture or pasted object on this page, not shown here)

BAZ2B bromodomain = target: T2, BAZ2B bromodomain (Homo sapiens, UniProt Q9UIF8); test: AlphaScreen binding competition, BAZ2B bromodomain; conditions: for % residual binding BAZ2B (100 μM): compound at 100 μM
T2 construct: BAZ2A and BAZ2B bromodomains were produced; made in house
T2 sequence (Q9UIF8 2060-2164 limits assumed): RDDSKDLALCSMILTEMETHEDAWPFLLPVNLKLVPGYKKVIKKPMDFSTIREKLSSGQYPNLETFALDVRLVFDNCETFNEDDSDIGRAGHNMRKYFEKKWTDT
Text: as §1, §2, §3

[2] = system: PC3 (AR‐negative) PCa cells; test: 2D proliferation assay (resazurin), PC3; format: cell-based
Procedure: (§4) Cell cultures, proliferation assay and spheroid gro wth […]
streptomycin and 2 m M L-glutamine. All cells were regularly tested for mycoplasma contamination.
For the proliferation assay, cells were counted with a hemocytometer and seeded in triplicates in 96-well plates (4 .5x10^3 cells/well for 22Rv1 and 2.0x103 for PC3) and let adhere overnight at 37°C, […]
(§5) transfected with siRNA for BAZ2A , RLUC or KIF11, as detailed below. The cells were incubated for 1, 3, 6 (PC3) and 9 days (22Rv1) and the medium containing either the carrier or the inhibitors was replaced every 3 day s. Cell proliferation and viability were determined at day 1, 3, 6 and 9 by adding 10% resazurin sodium salt solution (0. 03 mg/ml powder from Sigma -Aldrich) directly into each well and incubating them for 4h at 37°C, 5% CO 2. The absorbance at 570/600 nm was measured using a Varioskan plate reader. The reduction of the resazur in sodium salt was calculated using the formula: (Abs x – Abs 0. 1%DMSO day1)/(Abs 0. 1%DMSO day9 - Abs 0. 1%DMSO day1). The growth rate was analysed using the linear regression algorithm of GraphPad Prism. […]

[3] = system: 22Rv1 (AR‐positive) PCa cells; test: 2D proliferation assay (resazurin), 22Rv1; format: cell-based
Procedure: (§6) Cell cultures, proliferation assay and spheroid gro wth
PC3 and 22Rv1 cells were cultured in RPMI 1640 medium containing 10% FBS, 1% penicillin-streptomycin and 2 m M L-glutamine. All cells were regularly tested for mycoplasma contamination.
For the proliferation assay, cells were counted with a hemocytometer and seeded in triplicates in 96-well plates (4 .5x10^3 cells/well for 22Rv1 and 2.0x103 for PC3) and let adhere overnight at 37°C, 5% CO2. The following day, the medium was replaced with RPMI 1640 containing either the carrier […]
as §5

PC3 spheroids = test: Spheroid growth (3D), PC3; format: cell-based
Procedure: as §4
streptomycin and 2 m M L-glutamine. All cells were regularly tested for mycoplasma contamination. […]
Spheroids were obtained by plating PC3 and 22Rv1 cells in low -adhesion round bottom 96 -well […]
(§7) After seeding, the cells were centrifuged for 10 min at 1200 x g at 4°C. Spheroids were given 48 hours to form after seeding before adding the treatment or the carrier (0.1% DMSO). Medium supplemented with treatment/carrier was changed every 48 hours, for a total of 32 days for 22Rv1 and 16 days for PC3. Each spheroid was imaged in brightfield every day or every other day (after day 20), using a Leica DM IL microscope […]
(§8) equipped with a Leica DFC450C digital camera. The area of each spheroid was measured using ImageJ and the average area for each condition was calculated. The growth rate was analysed using the segmental linear regression algorithm of GraphPad Prism. The appropriateness of the model was evaluated by considering the R square values and the Replicates test (Suppl. Table 6). […]

22Rv1 spheroids = test: Spheroid growth (3D), 22Rv1; format: cell-based
Procedure: as §6
PC3 and 22Rv1 cells were cultured in RPMI 1640 medium containing 10% FBS, 1% penicillin-streptomycin and 2 m M L-glutamine. All cells were regularly tested for mycoplasma contamination. […]
as §7, with “Spheroids were obtained by plating PC3 and 22Rv1 cells in low -adhesion round bottom 96 -well plates. For 22Rv1, 2500 cells/well were seeded in 200 µl RPMI 1640; for PC3, 250 cells/well were seeded in 200 µl RPMI 1640 supplemented with 1.5% Matrigel. After” for “After”
as §8

BAZ2A bromodomain [4] = target: T1, BAZ2A bromodomain; test: Isothermal titration calorimetry (ITC) on BAZ2A; format: binding
Text: It is worth noticing however that these values may be slightly overestimated. The presence of 0.25% DMSO in the ITC experiments leads to less favorable K D values as DMSO competes for binding to the conserved Asn (Lolli & Battistutta, [2013]; Navratilova et al., [2016]). […] Indeed, the change in sign of the entropic term observed for TP‐238 binding to BAZ2A (compared to BPTF and CECR2) closely resembles the effect reported for crotonyllysine binding to the TAF1 bromodomain (compared to Kac), also displacing an additional water molecule from the binding pocket (Flynn et al., [2015]). […]
Isothermal Titration Calorimetry
ITC experiments were performed using an MicroCal PEAQ-IT C microcalorimeter (Malvern Panalytical, UK) at 25°C with a stirring speed of 750 rpm in 20mM Tris pH 7. 8, 0. 2 M NaCl, 0. 2 mM TCEP and 0. 25% DMSO. For each experiment, one 0. 4 µl injection followed by eighteen 2 µl injections have been performed, with 150 seconds separating each injectio n. The inhibitors were tested at 70 µM in the cell with His -Baz2A in the syringe at 1 mM. A blank run with only the buffer was carried out (Suppl. Fig. S6). Data analysis was done with PE A Q-ITC Analysis software , fitting the curve with the ‘one site’ model.

BAZ2A bromodomain [5] = target: T1, BAZ2A bromodomain; test: Screening by co‐crystallization with BAZ2A bromodomain; format: binding
Text: as §1

CECR2 bromodomain = conditions: ref Ycas et al., [2020]; read-out: K D CECR2; cited from earlier work
BRD9 = conditions: ref Ycas et al., [2020]; read-out: K D BRD9; cited from earlier work
BPTF = conditions: ref Ycas et al., [2020]; read-out: K D BPTF; cited from earlier work
[6] = 3D setting, GSK2801 25 μM, BAZ2‐ICR 25 μM, BI9564 20 μM

- IC50 (BAZ2A bromodomain [1]; AlphaScreen): 86 ± 9 µM
- % residual binding BAZ2A (100 μM) (BAZ2A bromodomain [1]): 52 ± 9%
- IC50 (BAZ2B bromodomain; AlphaScreen): > 100 µM
- % residual binding BAZ2B (100 μM) (BAZ2B bromodomain): 62 ± 7%
SMILES: CC(=O)n1cc(-c2c(C)nn3c2OCC3)c2ccccc21 [UZH23]

SMILES: COc1cc(-c2cn(C)c(=O)c3cnccc23)c(OC)cc1CN(C)C [BI9564]
- effect on 2D growth of PC3 cells ([2]; 2D‐cell culture, PC3): completely inactive on PC3 cells
- Slope (best-fit, linear regression of growth curve) ([2]; PC3, 0.1 µM): 0,1514
- Slope (best-fit, linear regression of growth curve) ([2]; PC3, 0.25 µM): 0,1530
- Slope (best-fit, linear regression of growth curve) ([2]; PC3, 0.5 µM): 0,1594
- Slope (best-fit, linear regression of growth curve) ([2]; PC3, 1 µM): 0,1557
- Slope (best-fit, linear regression of growth curve) ([2]; PC3, 2.5 µM): 0,1485
- Slope (best-fit, linear regression of growth curve) ([2]; PC3, 5 µM): 0,1453
- Slope (best-fit, linear regression of growth curve) ([2]; PC3, 10 µM): 0,1454
- Slope (best-fit, linear regression of growth curve) ([2]; PC3, 20 µM): 0,1470
- effect on 2D growth of 22Rv1 cells ([3]; 2D‐cell culture, 22Rv1): only moderately affected 22Rv1 cell growth; also recorded: limited activity only on 22Rv1 cells
- Slope (best-fit, linear regression of growth curve) ([3]; 22Rv1, 0.1 µM): 0,1043
- Slope (best-fit, linear regression of growth curve) ([3]; 22Rv1, 0.25 µM): 0,1062
- Slope (best-fit, linear regression of growth curve) ([3]; 22Rv1, 0.5 µM): 0,1057
- Slope (best-fit, linear regression of growth curve) ([3]; 22Rv1, 1 µM): 0,1046
- Slope (best-fit, linear regression of growth curve) ([3]; 22Rv1, 2.5 µM): 0,09943
- Slope (best-fit, linear regression of growth curve) ([3]; 22Rv1, 5 µM): 0,09452
- Slope (best-fit, linear regression of growth curve) ([3]; 22Rv1, 10 µM): 0,08987
- Slope (best-fit, linear regression of growth curve) ([3]; 22Rv1, 20 µM): 0,08043
- effect on growth of PC3 spheroids (PC3 spheroids; [6]): less effective on PC3
- slope2 (segmental linear regression of spheroid growth) (PC3 spheroids; PC3 spheroids, 20 µM, after X0 = day 6): 69835
- slope1 (segmental linear regression of spheroid growth) (PC3 spheroids; PC3 spheroids, 20 µM, before X0 = day 6): 28821
- effect on growth of 22Rv1 spheroids (22Rv1 spheroids; [6]): reduced the growth of 22Rv1 spheroids
- slope2 (segmental linear regression of spheroid growth) (22Rv1 spheroids; 22Rv1 spheroids, 20 µM, after X0 = day 9): 6998
- slope1 (segmental linear regression of spheroid growth) (22Rv1 spheroids; 22Rv1 spheroids, 20 µM, before X0 = day 9): 12255

- % residual binding BAZ2A (100 μM) (BAZ2A bromodomain [1]): 81 ± 3%
- % residual binding BAZ2B (100 μM) (BAZ2B bromodomain): 77 ± 2%
- Kd (BAZ2A bromodomain [4]; 25°C, 0.25% DMSO, read-out: K D BAZ2A): 108 ± 6 µM
- TΔS (BAZ2A bromodomain [4]; BAZ2A): 11.2 kJ/mol
- ΔG (BAZ2A bromodomain [4]; BAZ2A): -22.6 kJ/mol
- ΔH (BAZ2A bromodomain [4]; BAZ2A): -11.4 ± 0.29 kJ/mol
- N (sites) (BAZ2A bromodomain [4]; BAZ2A, one site model): 1 sites
- located in BAZ2A Kac pocket by co‐crystallization (BAZ2A bromodomain [5]): located in the BAZ2A Kac pocket
SMILES: CN(C)CCCOc1ccc(-c2cc(NCCCn3cccn3)nc(S(C)(=O)=O)n2)cc1 [TP‐238]
- Kd (CECR2 bromodomain): 0.01 µM
- Kd (BRD9): 1.1 µM
- Kd (BPTF): 0.12 µM
